Inconclusive results and toxic doses are left out. Rule for the calls: active = survival T/C of 150% or more; inactive = T/C below 125% in these data.
System: BDF1 mice, P388 leukemia ip, median survival T/C
Test: NCI In Vivo Anticancer Drug Screen. Data for tumor model P388 Leukemia (intraperitoneal) in B6D2F1 (BDF1) mice
Details: endpoint: median survival time, higher = longer survival
In short: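 Survival ratio, drug arm over vehicle arm, in mice with a transplanted tumour.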

[1] = dose: 100.0 mg/kg/injection, schedule: Q04DX003 (ip), vehicle: saline with Tween-80

Measured: T/C

COCC(O)CC#N (stereo unspecified)
inactive: dose: 100.0 mg/kg/injection, schedule: Q01DX009 (ip), vehicle: saline 100 % of control | dose: 100.0 mg/kg/injection, schedule: Q04DX003 (ip), vehicle: saline 95 % of control | dose: 200.0 mg/kg/injection, schedule: Q01DX009 (ip), vehicle: saline 87 % of control | dose: 200.0 mg/kg/injection, schedule: Q04DX003 (ip), vehicle: saline 95 % of control | dose: 400.0 mg/kg/injection, schedule: Q01DX009 (ip), vehicle: saline 95 % of control | dose: 400.0 mg/kg/injection, schedule: Q04DX003 (ip), vehicle: saline 100 % of control

COc1ccc(NC(C)=O)c(/C=N/Nc2ccc([N+](=O)[O-])cc2[N+](=O)[O-])c1
inactive: dose: 50.0 mg/kg/injection, schedule: Q04DX002 (ip), vehicle: saline with Tween-80 89 % of control | dose: 100.0 mg/kg/injection, schedule: Q04DX002 (ip), vehicle: saline with Tween-80 106 % of control | dose: 200.0 mg/kg/injection, schedule: Q04DX002 (ip), vehicle: saline with Tween-80 106 % of control

CSCCC(NC(=O)NC(CCSC)C(=O)Oc1ccc([N+](=O)[O-])cc1)C(=O)Oc1ccc([N+](=O)[O-])cc1 (stereo unspecified)
inactive: dose: 50.0 mg/kg/injection, schedule: Q01DX009 (ip), vehicle: saline with Tween-80 87 % of control | dose: 100.0 mg/kg/injection, schedule: Q01DX009 (ip), vehicle: saline with Tween-80 96 % of control | dose: 200.0 mg/kg/injection, schedule: Q01DX009 (ip), vehicle: saline with Tween-80 112 % of control

C/C(=N\Nc1nc2ccccc2o1)c1ccncc1
inactive: dose: 200.0 mg/kg/injection, schedule: Q04DX003 (ip), vehicle: Klucel (hydroxypropylcellulose) (HPC) 104 % of control | dose: 400.0 mg/kg/injection, schedule: Q04DX003 (ip), vehicle: Klucel (hydroxypropylcellulose) (HPC) 86 % of control

CN=C1c2ccccc2C2(c3ccccc3)C1N2C (stereo unspecified)
inactive: dose: 37.5 mg/kg/injection, schedule: Q01DX009 (ip), vehicle: saline with Tween-80 104 % of control | dose: 75.0 mg/kg/injection, schedule: Q01DX009 (ip), vehicle: saline with Tween-80 109 % of control | dose: 150.0 mg/kg/injection, schedule: Q01DX009 (ip), vehicle: saline with Tween-80 118 % of control

O=C(Nc1cccc2c1C(=O)c1cccc(NC(=O)c3ccc(C(=O)Nc4cccc5c4C(=O)c4cccc(NC(=O)c6ccccc6)c4C5=O)cc3)c1C2=O)c1ccccc1
inactive: dose: 6.25 mg/kg/injection, schedule: Q01DX009 (ip), vehicle: saline with Tween-80 92 % of control | dose: 12.5 mg/kg/injection, schedule: Q01DX009 (ip), vehicle: saline with Tween-80 107 % of control | dose: 25.0 mg/kg/injection, schedule: Q01DX009 (ip), vehicle: saline with Tween-80 111 % of control

O=CN1CCN(c2ccc([N+](=O)[O-])c3nonc23)CC1
inactive: dose: 15.0 mg/kg/injection, schedule: Q01DX009 (ip), vehicle: saline with Tween-80 103 % of control | dose: 20.0 mg/kg/injection, schedule: Q04DX003 (ip), vehicle: saline with Tween-80 100 % of control | dose: 30.0 mg/kg/injection, schedule: Q01DX009 (ip), vehicle: saline with Tween-80 100 % of control | dose: 40.0 mg/kg/injection, schedule: Q04DX003 (ip), vehicle: saline with Tween-80 99 % of control | dose: 80.0 mg/kg/injection, schedule: Q04DX003 (ip), vehicle: saline with Tween-80 95 % of control

O=C(O)c1cc(N=Nc2ccccc2)ccc1O
inactive: dose: 50.0 mg/kg/injection, schedule: Q04DX003 (ip), vehicle: saline with Tween-80 104 % of control | [1] 100 % of control

O=[N+]([O-])c1ccc(N=NNc2ccc(N=Nc3ccccc3)cc2)cc1
inactive: dose: 12.5 mg/kg/injection, schedule: Q01DX009 (ip), vehicle: Klucel (hydroxypropylcellulose) (HPC) 109 % of control | dose: 25.0 mg/kg/injection, schedule: Q01DX009 (ip), vehicle: Klucel (hydroxypropylcellulose) (HPC) 118 % of control | dose: 50.0 mg/kg/injection, schedule: Q01DX009 (ip), vehicle: Klucel (hydroxypropylcellulose) (HPC) 95 % of control | dose: 75.0 mg/kg/injection, schedule: Q01DX009 (ip), vehicle: Klucel (hydroxypropylcellulose) (HPC) 100 % of control | dose: 115.0 mg/kg/injection, schedule: Q01DX009 (ip), vehicle: Klucel (hydroxypropylcellulose) (HPC) 95 % of control | dose: 170.0 mg/kg/injection, schedule: Q01DX009 (ip), vehicle: Klucel (hydroxypropylcellulose) (HPC) 90 % of control

O=C1OC2(CCCCC2)Cc2oc3ccccc3c(=O)c21
inactive: dose: 50.0 mg/kg/injection, schedule: Q01DX005 (ip), vehicle: Klucel (hydroxypropylcellulose) (HPC) 87 % of control | dose: 200.0 mg/kg/injection, schedule: Q01DX005 (ip), vehicle: Klucel (hydroxypropylcellulose) (HPC) 92 % of control

O=c1cc[nH]c(=O)o1
active: dose: 19.0 mg/kg/injection, schedule: Q01DX009 (ip), vehicle: water 157 % of control | dose: 28.0 mg/kg/injection, schedule: Q01DX009 (ip), vehicle: water 169 % of control | dose: 42.0 mg/kg/injection, schedule: Q01DX009 (ip), vehicle: water 168 % of control
inactive: dose: 63.0 mg/kg/injection, schedule: Q01DX009 (ip), vehicle: water 94 % of control

Cc1cc(C)c(C#N)c([S][Sn]([Cl])([Cl])[S]c2nc(C)cc(C)c2C#N)n1
inactive: [1] 97 % of control | dose: 200.0 mg/kg/injection, schedule: Q04DX003 (ip), vehicle: saline with Tween-80 98 % of control

Reference: PubChem BioAssay AID328 (DTP/NCI, 2004)
